According to patent publication US11453674B2, “Heterocyclic compound, preparation method and use thereof in medicine” (SUZHOU SINOVENT PHARMACEUTICALS CO., LTD., priority 2019, dated 2022):

Experiments:
OAT3 = target: T1, OAT3 (Homo sapiens, UniProt Q8TCC7); test: Inhibition of 6-carboxyfluorescein uptake in HEK293/OAT3 cells; assay type: cell-based; settings: ratio of OAT3 IC50 to hURAT1 IC50 (selectivity)
T1 construct: host or cells: HEK293/OAT3 (hygromycin B selection)
T1 sequence (Q8TCC7 1-542): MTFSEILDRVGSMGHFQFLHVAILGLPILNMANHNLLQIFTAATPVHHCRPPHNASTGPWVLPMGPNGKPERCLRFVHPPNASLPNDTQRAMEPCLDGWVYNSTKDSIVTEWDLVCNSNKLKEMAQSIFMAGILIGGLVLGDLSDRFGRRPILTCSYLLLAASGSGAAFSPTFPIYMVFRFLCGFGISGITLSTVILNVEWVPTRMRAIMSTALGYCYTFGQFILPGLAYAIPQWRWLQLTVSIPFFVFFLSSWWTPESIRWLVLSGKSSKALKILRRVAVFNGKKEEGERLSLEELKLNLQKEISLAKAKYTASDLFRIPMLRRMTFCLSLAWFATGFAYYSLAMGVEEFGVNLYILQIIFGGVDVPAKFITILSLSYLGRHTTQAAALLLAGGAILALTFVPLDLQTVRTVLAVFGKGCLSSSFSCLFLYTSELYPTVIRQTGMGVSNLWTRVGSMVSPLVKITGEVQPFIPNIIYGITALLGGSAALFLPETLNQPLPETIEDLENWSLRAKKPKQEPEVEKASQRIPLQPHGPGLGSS
Procedure: 1. Reagents and Consumables
2. Culture Media and Solutions
Thaw medium: 90% DMEM+10% FBS+1× Pen/Strep, preserved at 4° C. for later use.
Culture medium: 90% DMEM+10% FBS+1× Pen/Strep+100 μg/mL Hygromycin B, preserved at 4° C. for later use.
5× Matrigel: 1 vial of Matrigel was thawed overnight at 4° C., then diluted to 500 mL with cold DMEM. The resulting solution was preserved at 4° C. for later use after subpackaging.
Uptake assay buffer: 487.5 mL HBSS buffer was mixed with 12.5 mL 1M HEPES, with the final HEPES concentration being 25 mM. This was prepared right before the experiment.
30 mM probenecid: 2 mg of the powder was dissolved in 233.62 μL of 100% DMSO. The resulting solution was preserved at −20° C. for later use after subpackaging.
The resulting solution was preserved at −20° C. for later use after subpackaging.
The resulting solution was preserved away from light at 4° C. for later use after subpackaging.
Envision multimode plate reader (with parameters as follows)
Emission wavelength: 590 nm
4. Experimental Procedures
The cells were quickly taken out from a liquid nitrogen tank and shaken in a water bath at 37° C. until completely thawed. The cell suspension was quickly added to a pre-heated culture medium and centrifuged at 1000 rpm for 5 min. The supernatant was discarded. A fresh pre-heated culture medium was added for resuspension. The cell suspension was transferred into a 100 mm dish and incubated at 37° C. at 5% CO2.
Typically, the cells were passaged every 2-3 days in a ratio of 1:3 to 1:5.
5× Matrigel was added to a 384-well cell plate at 5 μL/well for incubation in an incubator at 37° C. for 30 min, followed by digestion.
Cells were collected after digestion, counted, resuspended at 1×10^6 cells/mL using a culture medium, and added to a coated plate at 60 μL/well by using a Multidrop Combi to give a cell density of 6×10^4 cells/well, followed by incubating overnight at 37° C. at 5% CO2.
3) Preparation of Uptake Assay Buffer
On the day of experiment, fresh buffer was prepared as needed.
4) Preparation of Compounds (Using ECHO)
Working solutions of 11 concentrations were prepared for plotting a curve with stock solutions of 3 concentrations using PlateMap. The 3 concentrations were 30 mM, 0.3 mM, 0.003 mM, all formulated in DMSO.
5) Preparation of a Mixed Solution of 6-Carboxyfluorescein (6 μM) and Compounds
According to amount used, 6-carboxyfluorescein (1 mM) was diluted with uptake assay buffer to give a diluted 6-carboxyfluorescein solution (6 μM). […] The mixture was preserved away from light for later use. The concentration of DMSO was 2% at this time.
The cells were incubated overnight before the culture medium was carefully removed. Then 80 μL of uptake assay buffer was added to each well at room temperature for washing the cells 3 times. After washing, 20 μL of uptake assay buffer was added to each well.
The mixed solution of 6-CF (6 μM) and compounds, prepared in step 5, was transferred to a cell plate at 20 μL/well with Bravo. The mixed solution was centrifuged at 400 rpm for 1 min, and incubated away from light at room temperature for 10 min. At this time, the concentration of 6-CF became 3 μM, the concentration of the compound became the final concentration, and the concentration of DMSO became 1%.
The cells were washed 3 times with pre-cooled uptake assay buffer at 80 μL/well, to remove unbound 6-CF.
The plate was read on the Envision. The data were recorded and processed to calculate IC50.
According to the fluorescence signals of HPE and ZPE on each cell plate, the inhibition rate (%) of the compound in each well on the cell plate was calculated.
The XLfit software was used to plot the curve for calculating the IC50 values of the compounds. The IC50 value of the positive compound was also one of the criteria for controlling the quality of each experiment.

[1] = Pharmacokinetics in male SD rats (i.v. and p.o.); assay type: in vivo; settings: Sprague-Dawley (SD), rat, plasma, po, p.o. 10 mg/kg vs i.v. 1 mg/kg
Procedure: Example 29: Pharmacokinetics
Methodology for pharmacokinetics of compounds in rats:
1. Male SD rats were acclimatized in the animal room for 7 days after arrival.
2. Six SD rats were randomized into 2 groups, with 3 animals in each group. One group was administered by oral gavage (p.o.), and the other group was treated via tail vein injection (i.v.). Rats in the p.o. group were deprived of food overnight before administration.
3. After administration, about 200 μL of blood was collected from the orbital venous plexus at various time points.
4. The collected blood samples were centrifuged at 12000 rpm for 5 min at 4° C., and then the upper plasma samples were collected and preserved in a refrigerator at −20° C.
5. The procedures were summarized as follows:
6. LC-MS/MS (UPLC-MS/MS: liquid chromatography Waters Acquity UPLC (USA) and mass spectrometry 5500 Q Trap (Applied Biosystem/MDS SCIEX) or HPLC-MS\MS: liquid chromatography Agilent 1200 series (USA) and mass spectrometry API 4000 (Applied Biosystem/MDS SCIEX)) were used to determine the concentration of the compound in the plasma.
The pharmacokinetic parameters were calculated using the pharmacokinetic software WinNonlin [Model: Phoenix™ WinNonlin® 6.1; Manufacturer: Pharsight Corporation]. [Phoenix 1.1 User's Guide: p 251-p 300]

IC50, OAT3/IC50, hURAT1 (OAT3) | bioavailability [1] | SMILES
8.9 |  | CCc1nc2ncc(Br)cn2c1C(=O)c1cc(Br)c(O)c(Br)c1 [Example 3, (6-bromo-2-ethylimidazo[1,2-a]pyrimidin-3-yl)(3,5-dibromo-4-hydroxyphenyl)methanone]
21.1 | > 30% | CCc1nc2ncc(C(F)(F)F)cn2c1C(=O)c1cc(Br)c(O)c(Br)c1 [Example 5, (3,5-dibromo-4-hydroxyphenyl)(2-ethyl-6-(trifluoromethyl)imidazo[1,2-a]pyrimidin-3-yl)methanone]
24.8 |  | CCc1nc2ncc(Cl)cn2c1C(=O)c1cc(Br)c(O)c(Br)c1 [Example 6, (6-chloro-2-ethylimidazo[1,2-a]pyrimidin-3-yl)(3,5-dibromo-4-hydroxyphenyl)methanone]
3.0 |  | CCc1nc2cc(C(F)(F)F)ncn2c1C(=O)c1cc(Br)c(O)c(Br)c1 [Example 7, (3,5-dibromo-4-hydroxyphenyl)(2-ethyl-7-(trifluoromethyl)imidazo[1,2-c]pyrimidin-3-yl)methanone]
8.7 | > 30% | CCc1nc2ncccn2c1C(=O)c1cc(Br)c(O)c(Br)c1 [Example 20, 2,6-dibromo-4-([2-ethylimidazo[1,2-a]pyrimidin-3-yl]carbonyl) phenol]
5.5 | > 30% | CCc1nc2cc(Cl)ncn2c1C(=O)c1cc(Br)c(O)c(Br)c1 [Example 21, (7-chloro-2-ethylimidazo[1,2-f]pyrimidin-3-yl)(3,5-dibromo-4-hydroxyphenyl)methanone]
10.3 |  | CCc1nc2ncccn2c1C(=O)c1cc(Br)c(O)c(C(F)(F)F)c1 [Example 23, (3-bromo-4-hydroxy-5-(trifluoromethyl)phenyl)(2-ethylimidazo[1,2-a]pyrimidin-3-yl)methanone]

The remaining lines, values behind:

SMILES | IC50, OAT3/IC50, hURAT1 (OAT3) | bioavailability [1]
CCc1nc2ncc(F)cn2c1C(=O)c1cc(Br)c(O)c(Br)c1 [Example 4, (3,5-dibromo-4-hydroxyphenyl)(2-ethyl-6-fluoroimidazo[1,2-a]pyrimidin-3-yl)methanone] | 36.5 | > 30%
CCn1nc2ccc(F)cc2c1C(=O)c1cc(Br)c(O)c(Br)c1 [Example 9, (3,5-dibromo-4-hydroxyphenyl)(2-ethyl-5-fluoro-2H-indazol-3-yl) methanone] | 2.0 | 
CCc1nc2ncc(F)cn2c1C(=O)c1cc(Br)c(O)c(C#N)c1 [Example 14, 3-bromo-5-(2-ethyl-6-fluoroimidazo[1,2-a]pyrimidine-3-carbonyl)-2-hydroxybenzonitrile] | 3.6 | > 30%
CCn1nc2ccncc2c1C(=O)c1cc(Br)c(O)c(Br)c1 [Example 16, (3,5-dibromo-4-hydroxyphenyl)(2-ethyl-2H-pyrazolo[4,3-c]pyridin-3-yl)methanone] | 3.1 | 
CCc1nc2ncc(F)cn2c1C(=O)c1cc(Br)c(O)c(C(F)(F)F)c1 [Example 18, (3-bromo-4-hydroxy-5-(trifluoromethyl)phenyl)(2-ethyl-6-fluoroimidazo[1,2-a]pyrimidin-3-yl)methanone] | 16.2 | 
CCc1nc2ncccn2c1C(=O)c1cc(Br)c(O)c(C#N)c1 [Example 22, 3-bromo-5-(2-ethylimidazo[1,2-a]pyrimidine-3-carbonyl)-2-hydroxybenzonitrile] | 1.4 | 
